Among the data in BindingDB's records for PubMed 31865013 (n/a, 2020) are IC50 values, retold here.

For the experiment, the target named is T1, Histone deacetylase 6 (Homo sapiens, UniProt Q9UBN7).
T1 sequence (Q9UBN7 whole entry): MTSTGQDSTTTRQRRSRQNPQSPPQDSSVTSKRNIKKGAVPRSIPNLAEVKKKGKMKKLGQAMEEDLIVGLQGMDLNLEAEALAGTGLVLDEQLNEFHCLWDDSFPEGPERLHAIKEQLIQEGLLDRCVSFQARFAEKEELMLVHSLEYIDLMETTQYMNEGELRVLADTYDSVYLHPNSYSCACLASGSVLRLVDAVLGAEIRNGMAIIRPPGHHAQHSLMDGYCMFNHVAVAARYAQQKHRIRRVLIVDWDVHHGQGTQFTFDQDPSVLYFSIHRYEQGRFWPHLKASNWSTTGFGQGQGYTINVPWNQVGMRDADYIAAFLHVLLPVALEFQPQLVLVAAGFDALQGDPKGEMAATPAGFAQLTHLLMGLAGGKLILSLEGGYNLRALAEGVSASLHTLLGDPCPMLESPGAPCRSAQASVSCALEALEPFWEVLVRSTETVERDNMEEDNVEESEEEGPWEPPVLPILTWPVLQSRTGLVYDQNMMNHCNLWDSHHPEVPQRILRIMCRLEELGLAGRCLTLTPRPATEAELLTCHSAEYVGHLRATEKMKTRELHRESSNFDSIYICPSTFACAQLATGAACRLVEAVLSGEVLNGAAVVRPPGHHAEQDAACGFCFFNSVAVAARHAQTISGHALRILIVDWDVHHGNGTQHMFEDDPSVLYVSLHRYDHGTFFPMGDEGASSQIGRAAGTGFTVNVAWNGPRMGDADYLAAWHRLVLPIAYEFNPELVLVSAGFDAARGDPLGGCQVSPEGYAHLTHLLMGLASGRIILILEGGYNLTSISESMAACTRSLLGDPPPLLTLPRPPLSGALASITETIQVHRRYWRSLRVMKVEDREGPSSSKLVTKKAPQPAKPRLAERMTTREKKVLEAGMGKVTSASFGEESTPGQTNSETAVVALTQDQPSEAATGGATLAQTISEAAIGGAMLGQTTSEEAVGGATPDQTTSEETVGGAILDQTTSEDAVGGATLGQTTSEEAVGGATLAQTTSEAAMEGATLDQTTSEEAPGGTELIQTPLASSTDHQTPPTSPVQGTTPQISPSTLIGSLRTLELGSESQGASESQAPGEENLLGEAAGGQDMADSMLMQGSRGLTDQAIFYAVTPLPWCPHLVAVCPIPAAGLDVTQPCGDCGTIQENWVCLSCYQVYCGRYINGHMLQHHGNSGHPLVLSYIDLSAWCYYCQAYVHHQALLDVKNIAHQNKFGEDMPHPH
The experiment can be described thus: Inhibition of HDAC6 (unknown origin) using Fluor de lys as substrate by fluorescence based analysis.
Consider `CCCCCCCCCCCCOc1c(CC)cc(Cc2cnc(N)nc2N)cc1CC`, for which the IC50 is 11 nM.
`COCCOc1cc(Cc2cnc(N)nc2N)cc2c1NCCC2` yielded an IC50 of 16 nM.
In the case of `CCc1cc(Cc2cnc(N)nc2N)cc(CC)c1N`, the IC50 came to 18 nM.
For `Nc1ncc(Cc2ccc3c(c2)CCCN3)c(N)n1` the value was 17 nM.
